# Assay results published in US11266643B2, “Triaryl compounds for treatment of PD-L1 diseases” (CHEMOCENTRYX, INC., priority 2019, dated 2022).
# Biological target: human PD-L1 (Homo sapiens (Human), UniProt Q9NZQ7)
# Test: Enzyme-Linked Immunosorbent Assay (ELISA), PD-1/PD-L1 binding
# Settings: human PD-1/PD-L1 ELISA, plates coated with human PD-L1
# Procedure: 96 Well plates were coated with […] of human PD-L1 (obtained from R&D) in PBS overnight at 4° C. The wells were then blocked with 2% BSA in PBS (W/V) with 0.05% TWEEN-20 for 1 hour at 37° C. The plates were washed 3 times with PBS/0.05% TWEEN-20 and the compounds were serial diluted (1:5) in dilution medium and added to the ELISA plates. Human PD-1 […] 0.31 μg/mL (ACRO Biosystems) were added and incubated for 1 hour at 37° C. then washed 3 times with PBS/0.05% TWEEN-20. A second block was performed with 2% BSA in PBS (W/V)/0.05% TWEEN-20 for 10 min at 37° C. and the plates were washed 3 times with PBS/0.05% TWEEN-20. Streptavidin-HRP was added for 1 hour at 37° C. then the plates were washed 3 times with PBS/0.05% TWEEN-20. TMB substrate was added and reacted for 20 min at 37° C. A stop solution (2 N aqueous H2SO4) was added. The absorbance was read at 450 nm using a micro-plate spectrophotometer.
# Using the methods described in the Examples above, the compounds in Table 2 were prepared & tested for biological activity using the ELISA method described above.
# human PD-L1, sequence (Q9NZQ7 19-239): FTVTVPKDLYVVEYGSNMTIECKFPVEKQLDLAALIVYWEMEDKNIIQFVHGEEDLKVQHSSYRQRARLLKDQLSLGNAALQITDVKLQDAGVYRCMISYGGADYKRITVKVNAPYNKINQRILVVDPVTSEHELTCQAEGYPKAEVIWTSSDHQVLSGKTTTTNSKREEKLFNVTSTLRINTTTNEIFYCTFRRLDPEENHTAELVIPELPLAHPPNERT
row,SMILES,IC50
1,COc1cc(-c2cccc(-c3cccc(NC(=O)c4nn(C)c(=O)n(C)c4=O)c3C)c2C)cc(F)c1CNCCC1CCC(=O)N1 (stereo not drawn) [Example 1.106],< 10 nM
2,COc1cc(-c2cccc(-c3cccc(NC(=O)c4c[nH]c(=O)n(C)c4=O)c3C)c2C)cc(F)c1CNCC[C@@H]1CCC(=O)N1 [Example 1.109],< 10 nM
3,COc1cc(-c2cccc(-c3cccc(NC(=O)c4cn(C)c(=O)n(C)c4=O)c3C)c2C)cc(F)c1CNCc1ccnn1C [Example 1.112],10 to 1000 nM
4,COc1cc(-c2cccc(-c3cccc(NC(=O)c4cncn(C)c4=O)c3C)c2C)cc(F)c1CNCc1c[nH]c(=O)[nH]c1=O [Example 1.113],< 10 nM
5,COc1cc(-c2cccc(-c3cccc(NC(=O)c4cn(C)c(=O)n(C)c4=O)c3C)c2C)cc(F)c1CNCCN1CCCC1=O [Example 1.118],< 10 nM
6,COc1cc(-c2cccc(-c3cccc(NC(=O)c4c[nH]c(=O)n(C)c4=O)c3C)c2C)cc(F)c1CNCc1ncc[nH]1 [Example 1.119],10 to 1000 nM
7,COc1cc(-c2cccc(-c3cccc(Nc4nccc5nccnc45)c3C)c2C)cc(F)c1CNC1CCOCC1 [Example 1.123],< 10 nM
8,COc1cc(-c2cccc(-c3cccc(NC(=O)c4cn(C)c(=O)n(C)c4=O)c3C)c2C)cc(F)c1CN(C)[C@H]1CNC(=O)C1 [Example 1.126],10 to 1000 nM
9,COc1cc(-c2cccc(-c3cccc(NC(=O)c4cn(C)c(=O)n(C)c4=O)c3C)c2C)cc(F)c1CN[C@H]1CNC(=O)C1 [Example 1.127],< 10 nM
10,COc1cc(-c2cccc(-c3cccc(NC(=O)c4cn(C)c(=O)n(C)c4=O)c3C)c2C)cc(F)c1CN[C@H]1CCC[C@@H]1O [Example 1.129],< 10 nM
11,COc1cc(-c2cccc(-c3cccc(Nc4nccc5nccnc45)c3C)c2C)cc(F)c1CN[C@@H]1CCNC1=O [Example 1.130],10 to 1000 nM
12,COc1cc(-c2cccc(-c3cccc(NC(=O)c4c[nH]c(=O)n(C)c4=O)c3C)c2C)cc(F)c1CNCCN1CCCC1=O [Example 1.131],< 10 nM
13,COc1cc(-c2cccc(-c3cccc(NC(=O)c4cn(C)c(=O)n(C)c4=O)c3C)c2C)cc(F)c1CNC(C)(C)CO [Example 1.133],< 10 nM
14,COc1cc(-c2cccc(-c3cccc(NC(=O)c4cn(C)c(=O)n(C)c4=O)c3C)c2C)cc(F)c1CN[C@@H]1CCC[C@H]1O [Example 1.137],< 10 nM
15,COc1cc(-c2cccc(-c3cccc(NC(=O)c4c[nH]c(=O)n(C)c4=O)c3C)c2C)cc(F)c1CN[C@@H]1CCNC1=O [Example 1.138],10 to 1000 nM
16,COc1cc(-c2cccc(-c3cccc(NC(=O)c4cncn(C)c4=O)c3C)c2C)cc(F)c1CNC1CCOC1 (stereo not drawn) [Example 1.139],< 10 nM
17,COc1cc(-c2cccc(-c3cccc(NC(=O)c4cncn(C)c4=O)c3C)c2C)cc(F)c1CNCC1(O)CC1 [Example 1.140],< 10 nM

row,SMILES,IC50
1,COc1cc(-c2cccc(-c3cccc(Nc4nccc5nccnc45)c3C)c2C)cc(F)c1CN[C@H]1CCC[C@@H]1O [Example 1.144],< 10 nM
2,COc1cc(-c2cccc(-c3cccc(NC(=O)c4cccn(C)c4=O)c3C)c2C)cc(F)c1CNC[C@H]1CCC(=O)N1 [Example 1.145],< 10 nM
3,COc1cc(-c2cccc(-c3cccc(NC(=O)c4cn(C)c(=O)n(C)c4=O)c3C)c2C)cc(F)c1CNCc1cn(C)c(=O)n(C)c1=O [Example 1.146],< 10 nM
4,COc1cc(-c2cccc(-c3cccc(NC(=O)c4cn(C)c(=O)n(C)c4=O)c3C)c2C)cc(F)c1CN[C@H]1CCC[C@H]1O [Example 1.147],< 10 nM
5,COc1cc(-c2cccc(-c3cccc(NC(=O)c4cn(C)c(=O)n(C)c4=O)c3C)c2C)cc(F)c1CN(C)[C@@H]1CNC(=O)C1 [Example 1.148],< 10 nM
6,COc1cc(-c2cccc(-c3cccc(NC(=O)c4cncn(C)c4=O)c3C)c2C)cc(F)c1CNC(C)(C)CO [Example 1.151],< 10 nM
7,COc1cc(-c2cccc(-c3cccc(NC(=O)c4cn(C)c(=O)n(C)c4=O)c3C)c2C)cc(F)c1CN(C)C[C@H]1CCC(=O)N1 [Example 1.152],10 to 1000 nM
8,COc1cc(-c2cccc(-c3cccc(Nc4nccc5nccnc45)c3C)c2C)cc(F)c1CN[C@H]1CNC(=O)C1 [Example 1.153],< 10 nM
9,COc1cc(-c2cccc(-c3cccc(NC(=O)c4cncn(C)c4=O)c3C)c2C)cc(F)c1CN[C@H]1CNC(=O)C1 [Example 1.154],< 10 nM
10,COc1cc(-c2cccc(-c3cccc(NC(=O)c4cn(C)c(=O)n(C)c4=O)c3C)c2C)cc(F)c1CNC[C@H]1CCC(=O)N1 [Example 1.155],< 10 nM
11,COc1cc(-c2cccc(-c3cccc(NC(=O)c4cccn(C)c4=O)c3C)c2C)cc(F)c1CNC[C@@H]1CCC(=O)N1 [Example 1.157],< 10 nM
12,COc1cc(-c2cccc(-c3cccc(NC(=O)c4c[nH]c(=O)n(C)c4=O)c3C)c2C)cc(F)c1CNC[C@H]1CCC(=O)N1 [Example 1.158],< 10 nM
13,COc1cc(-c2cccc(-c3cccc(Nc4nccc5nccnc45)c3C)c2C)cc(F)c1CNC[C@H]1CCC(=O)N1 [Example 1.159],< 10 nM
14,COc1cc(-c2cccc(-c3cccc(NC(=O)c4cncn(C)c4=O)c3C)c2C)cc(F)c1CN[C@@H]1CCC[C@H]1O [Example 1.160],< 10 nM
15,COc1cc(-c2cccc(-c3cccc(NC(=O)c4cccn(C)c4=O)c3C)c2C)cc(F)c1CN[C@@H]1CCC[C@@H]1O [Example 1.165],< 10 nM
16,COc1cc(-c2cccc(-c3cccc(NC(=O)c4cncn(C)c4=O)c3C)c2C)cc(F)c1CN(C)CC(C)(C)O [Example 1.166],10 to 1000 nM

# Further lines, results first:
row,IC50,SMILES
1,< 10 nM,COc1cc(-c2cccc(-c3cccc(NC(=O)c4cn(C)c(=O)n(C)c4=O)c3C)c2C)cc(F)c1CN[C@@H]1CCC(=O)NC1 [Example 1.107]
2,< 10 nM,COc1cc(-c2cccc(-c3cccc(NC(=O)c4cn(C)c(=O)n(C)c4=O)c3C)c2C)cc(F)c1CNCC[C@@H]1CCC(=O)N1 [Example 1.108]
3,< 10 nM,COc1cc(-c2cccc(-c3cccc(NC(=O)c4cn(C)c(=O)n(C)c4=O)c3C)c2C)cc(F)c1CN[C@H]1CCC(=O)NC1 [Example 1.110]
4,< 10 nM,COc1cc(-c2cccc(-c3cccc(NC(=O)c4c[nH]c(=O)n(C)c4=O)c3C)c2C)cc(F)c1CN[C@@H]1CCOC[C@@H]1O [Example 1.111]
5,< 10 nM,COc1cc(-c2cccc(-c3cccc(NC(=O)c4cn(C)c(=O)n(C)c4=O)c3C)c2C)cc(F)c1CNCCC(N)=O [Example 1.114]
6,< 10 nM,COc1cc(-c2cccc(-c3cccc(NC(=O)c4cn(C)c(=O)n(C)c4=O)c3C)c2C)cc(F)c1CNCCC1CCC(=O)N1 (stereo not drawn) [Example 1.115]
7,10 to 1000 nM,COc1cc(-c2cccc(-c3cccc(Nc4nccc5nccnc45)c3C)c2C)cc(F)c1CNCc1ccn[nH]1 [Example 1.116]
8,< 10 nM,COc1cc(-c2cccc(-c3cccc(NC(=O)c4cccn(C)c4=O)c3C)c2C)cc(F)c1CN[C@@H]1CCC[C@H]1O [Example 1.117]
9,10 to 1000 nM,COc1cc(-c2cccc(-c3cccc(NC(=O)c4c[nH]c(=O)n(C)c4=O)c3C)c2C)cc(F)c1CNCc1noc(=O)[nH]1 [Example 1.120]
10,10 to 1000 nM,COc1cc(-c2cccc(-c3cccc(NC(=O)c4cn(C)c(=O)n(C)c4=O)c3C)c2C)cc(F)c1CNC1CC(=O)NC1=O (stereo not drawn) [Example 1.121]
11,10 to 1000 nM,COc1cc(-c2cccc(-c3cccc(Nc4nccc5nccnc45)c3C)c2C)cc(F)c1CN[C@H]1CCNC1=O [Example 1.125]
12,< 10 nM,COc1cc(-c2cccc(-c3cccc(NC(=O)c4c[nH]c(=O)n(C)c4=O)c3C)c2C)cc(F)c1CNCCC(N)=O [Example 1.128]
13,10 to 1000 nM,COc1cc(-c2cccc(-c3cccc(NC(=O)c4cncn(C)c4=O)c3C)c2C)cc(F)c1CN(C)C[C@H]1CCC(=O)N1 [Example 1.132]
14,< 10 nM,COc1cc(-c2cccc(-c3cccc(NC(=O)c4c[nH]c(=O)n(C)c4=O)c3C)c2C)cc(F)c1CNCc1ccn[nH]1 [Example 1.134]
15,10 to 1000 nM,COc1cc(-c2cccc(-c3cccc(NC(=O)c4c[nH]c(=O)n(C)c4=O)c3C)c2C)cc(F)c1CN[C@H]1CCNC1=O [Example 1.135]
16,< 10 nM,COc1cc(-c2cccc(-c3cccc(NC(=O)c4c[nH]c(=O)n(C)c4=O)c3C)c2C)cc(F)c1CNCCC1CCC(=O)N1 (stereo not drawn) [Example 1.141]
17,< 10 nM,COc1cc(-c2cccc(-c3cccc(NC(=O)c4cccn(C)c4=O)c3C)c2C)cc(F)c1CN[C@H]1CNC(=O)C1 [Example 1.142]
18,< 10 nM,COc1cc(-c2cccc(-c3cccc(NC(=O)c4c[nH]c(=O)n(C)c4=O)c3C)c2C)cc(F)c1CN[C@H]1CNC(=O)C1 [Example 1.143]
19,< 10 nM,COc1cc(-c2cccc(-c3cccc(NC(=O)c4cn(C)c(=O)n(C)c4=O)c3C)c2C)cc(F)c1CNCc1c[nH]c(=O)[nH]c1=O [Example 1.149]
20,< 10 nM,COc1cc(-c2cccc(-c3cccc(NC(=O)c4cccn(C)c4=O)c3C)c2C)cc(F)c1CNC(C)(C)CO [Example 1.150]
21,< 10 nM,COc1cc(-c2cccc(-c3cccc(NC(=O)c4cccn(C)c4=O)c3C)c2C)cc(F)c1CNC[C@@H]1CCC(=O)N1C [Example 1.156]
22,< 10 nM,COc1cc(-c2cccc(-c3cccc(NC(=O)c4cncn(C)c4=O)c3C)c2C)cc(F)c1CN[C@H]1CCC[C@H]1O [Example 1.161]
23,< 10 nM,COc1cc(-c2cccc(-c3cccc(NC(=O)c4cn(C)c(=O)n(C)c4=O)c3C)c2C)cc(F)c1CNC1CCOC1 (stereo not drawn) [Example 1.162]
24,< 10 nM,COc1cc(-c2cccc(-c3cccc(NC(=O)c4cccn(C)c4=O)c3C)c2C)cc(F)c1CN(C)CCO [Example 1.164]
